Common to all, as to details: 72 h
The subject of experiment [1] is U2OS. Put plainly: fractional viability (live cells / total cells); higher = less cell death. As for the experimental part: (§1)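 U2OS::Nuc-mKate2 cells seeded in 96-well plates and treated with eight- to ten-point half-log or log dilutions of drug in the presence of 50 nM SYTOX Green. Live (mKate2+) and dead (SYTOX+) cells were counted by IncuCyte STACK live-cell microscopy at 72 h; biological triplicates. GR is the normalised growth-rate inhibition value (Hafner 2016; 1 = untreated growth, <0 = population shrinking). FV is live/(live+dead) cells, not normalised.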

Experiment [2] deals with U2OS. Put plainly: drug GRADE (percent of response due to cell death) (% (0-100)); higher = more death-driven response. As for the experimental part: (§2)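 U2OS cells treated with full dose titrations of drug; live and dead cells counted by STACK microscopy (mKate2 nuclei, SYTOX Green) at 72 h, biological triplicates. GR and FV dose responses were fitted with 4-parameter logistic models (GR lower bound -1). GRADE (0-100) is the rescaled angle of a linear fit of FV versus GR at doses with GR >= 0, giving the percentage of the response due to cell death.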

The subject of experiment [3] is U2OS. Put plainly: normalized growth rate inhibition value (GR) relative to untreated cells (GR value (dimensionless, 1 = untreated growth)); higher = less growth inhibition. Here is the method:
as §1

Experiment [4] deals with U2OS. Put plainly: GRmin (fitted minimal GR value at highest effect) (GR value (dimensionless)); higher = less efficacious. Here is the method:
as §2

Experiment [5] relates to U2OS. Put plainly: GR50 (concentration giving GR = 0.5). Here is the method:
as §2

Each structure is given as a SMILES string.

As to `CNC(=O)c1ccccc1Sc1ccc2c(/C=C/c3ccccn3)n[nH]c2c1` [Axitinib], the fractional viability with U2OS [1] (0.01 µM) was found to be 0.977; in the experiment with U2OS [1] (0.0316 µM), 0.978; in the experiment on U2OS [1] (0.1 µM), 0.97; in the experiment with U2OS [1] (0.316 µM) it was 0.972; in the experiment with U2OS [1] (1 µM), 0.956; in the experiment with U2OS [1] (3.16 µM), 0.788. Also, the fractional viability in the experiment with U2OS [1] (10 µM) amounted to 0.949; in the experiment on U2OS [1] (31.6 µM), 0.91. Also, the “drug GRADE” value with U2OS [2] was found to be 32.1. Besides, the “normalized growth rate inhibition value” in the experiment on U2OS [3] (0.01 µM) stood at 0.956; with U2OS [3] (0.0316 µM), 0.956; in the experiment with U2OS [3] (0.1 µM), 0.887; in the experiment on U2OS [3] (0.316 µM), 0.994; in the experiment on U2OS [3] (1 µM), 0.822; in the experiment on U2OS [3] (3.16 µM), 0.223. Moreover, the “normalized growth rate inhibition value” was found to be 0.733 in the experiment on U2OS [3] (10 µM) and 0.643 with U2OS [3] (31.6 µM). Moreover, the GRmin in the experiment with U2OS [4] was found to be 0.534.

In the case of `Cc1c(N)nc([C@H](CC(N)=O)NC[C@H](N)C(N)=O)nc1C(=O)N[C@H](C(=O)N[C@H](C)[C@@H](O)[C@H](C)C(=O)N[C@H](C(=O)NCCc1nc(-c2nc(C(=O)NCCC[S+](C)C)cs2)cs1)[C@@H](C)O)[C@@H](OC1OC(CO)C(O)C(O)C1OC1OC(CO)C(O)C(OC(N)=O)C1O)c1cnc[nH]1` (some centres undefined) [Bleomycin], the fractional viability with U2OS [1] (0.00100578 µM) turned out to be 0.989; in the experiment on U2OS [1] (0.00317827 µM), 0.989; in the experiment with U2OS [1] (0.0100433 µM) it was 0.99; with U2OS [1] (0.0317369 µM), 0.991; in the experiment with U2OS [1] (0.100289 µM), 0.987; with U2OS [1] (0.316912 µM), 0.982. Besides, the fractional viability was 0.972 with U2OS [1] (1.00144 µM), 0.968 with U2OS [1] (3.16456 µM) and 0.947 in the experiment on U2OS [1] (10 µM). In the experiment on U2OS [2], the “drug GRADE” value amounted to 6.06. Moreover, the “normalized growth rate inhibition value” stood at 1.12 in the experiment on U2OS [3] (0.00100578 µM); 0.986 in the experiment with U2OS [3] (0.00317827 µM); 1.11 with U2OS [3] (0.0100433 µM); 1.03 in the experiment on U2OS [3] (0.0317369 µM); 0.88 in the experiment on U2OS [3] (0.100289 µM); 0.888 in the experiment on U2OS [3] (0.316912 µM). The “normalized growth rate inhibition value” in the experiment with U2OS [3] (1.00144 µM) was 0.552; in the experiment with U2OS [3] (3.16456 µM) it was 0.195; in the experiment with U2OS [3] (10 µM) it was 0.0892. In the experiment on U2OS [4], this compound had a GRmin of 0.0459. For the same compound, the GR50 in the experiment with U2OS [5] is 1.15 µM.

On to `COc1cc2nccc(Oc3ccc(NC(=O)C4(C(=O)Nc5ccc(F)cc5)CC4)cc3)c2cc1OC` [Cabozantinib], for which the fractional viability came out at 0.984 in the experiment on U2OS [1] (0.00100578 µM); 0.986 in the experiment on U2OS [1] (0.00317827 µM); 0.985 in the experiment on U2OS [1] (0.0100433 µM); 0.981 with U2OS [1] (0.0317369 µM); 0.979 in the experiment on U2OS [1] (0.100289 µM); 0.977 in the experiment on U2OS [1] (0.316912 µM). Further, the fractional viability with U2OS [1] (1.00144 µM) is 0.968; in the experiment with U2OS [1] (3.16456 µM) it was 0.917; in the experiment with U2OS [1] (10 µM) it was 0.647. Moreover, the “drug GRADE” value in the experiment on U2OS [2] stood at 9.76. Moreover, the “normalized growth rate inhibition value” is 1.02 in the experiment with U2OS [3] (0.00100578 µM); 0.963 in the experiment with U2OS [3] (0.00317827 µM); 1.03 in the experiment on U2OS [3] (0.0100433 µM); 1.07 in the experiment on U2OS [3] (0.0317369 µM); 0.938 in the experiment with U2OS [3] (0.100289 µM); 0.954 in the experiment with U2OS [3] (0.316912 µM). Further, the “normalized growth rate inhibition value” is 0.843 in the experiment on U2OS [3] (1.00144 µM), 0.443 in the experiment on U2OS [3] (3.16456 µM) and -0.338 in the experiment with U2OS [3] (10 µM). Also, the GR50 in the experiment with U2OS [5] is 2.79 µM.

Consider `COc1cc2c(Oc3ccc4[nH]c(C)cc4c3F)ncnc2cc1OCCCN1CCCC1` [Cediranib], for which the fractional viability in the experiment on U2OS [1] (0.00100578 µM) is 0.987; in the experiment on U2OS [1] (0.00317827 µM) it was 0.986; with U2OS [1] (0.0100433 µM), 0.986; in the experiment on U2OS [1] (0.0317369 µM), 0.988; in the experiment on U2OS [1] (0.100289 µM) it was 0.986; with U2OS [1] (0.316912 µM), 0.987. Further, the fractional viability in the experiment on U2OS [1] (1.00144 µM) came out at 0.974; in the experiment with U2OS [1] (3.16456 µM), 0.966; in the experiment with U2OS [1] (10 µM), 0.686. Further, in the experiment on U2OS [2], the “drug GRADE” value was determined as 55.1. The “normalized growth rate inhibition value” in the experiment on U2OS [3] (0.00100578 µM) worked out at 0.951; with U2OS [3] (0.00317827 µM), 1.04; with U2OS [3] (0.0100433 µM) it was 1.11; in the experiment with U2OS [3] (0.0317369 µM), 1.04; in the experiment on U2OS [3] (0.100289 µM) it was 0.987; in the experiment with U2OS [3] (0.316912 µM), 1.07. The “normalized growth rate inhibition value” was 0.861 in the experiment with U2OS [3] (1.00144 µM), 0.837 in the experiment with U2OS [3] (3.16456 µM) and 0.308 in the experiment with U2OS [3] (10 µM). In the experiment on U2OS [5], this compound returned a GR50 of 7.19 µM.
